# Assays:
# [1] = target: T1, Human FAAH (Homo sapiens, UniProt O00519); assay: FAAH assay (glutamate dehydrogenase-coupled, oleamide substrate, absorbance at 340 nm); format: biochemical; conditions: irreversible inhibition, 1-4 nM FAAH, pH 7.4, 30° C., 90 min; for kinact/KI: read-out: hFAAH kinact/Ki
# T1 construct: made in house
# T1 sequence (O00519 1-579): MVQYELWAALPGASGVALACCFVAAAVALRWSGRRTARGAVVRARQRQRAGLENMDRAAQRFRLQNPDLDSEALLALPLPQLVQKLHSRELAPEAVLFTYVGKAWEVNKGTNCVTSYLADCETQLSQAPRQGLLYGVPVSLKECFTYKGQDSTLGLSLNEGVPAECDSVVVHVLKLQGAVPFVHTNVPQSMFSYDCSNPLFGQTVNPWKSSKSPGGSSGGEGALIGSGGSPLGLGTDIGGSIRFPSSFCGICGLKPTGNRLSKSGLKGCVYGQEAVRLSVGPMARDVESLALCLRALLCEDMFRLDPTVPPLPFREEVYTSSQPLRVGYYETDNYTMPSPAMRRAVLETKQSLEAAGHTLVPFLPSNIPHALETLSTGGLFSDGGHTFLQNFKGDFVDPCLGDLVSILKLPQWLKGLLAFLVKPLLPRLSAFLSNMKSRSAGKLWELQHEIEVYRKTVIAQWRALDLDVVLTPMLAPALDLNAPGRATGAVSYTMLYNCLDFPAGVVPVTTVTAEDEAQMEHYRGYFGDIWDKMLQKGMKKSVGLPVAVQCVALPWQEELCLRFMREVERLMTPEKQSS
Compound,kinact/KI [1] [M⁻¹ s⁻¹],melting point [°C],hFAAH kinact/Ki [1] [M⁻¹ s⁻¹]
"Cc1ccc(NC(=O)N2CCC(=C(F)c3cccc(Oc4ccc(C(F)(F)F)cn4)c3)CC2)cn1 [Example 70, 4-(fluoro(3-(5-(trifluoromethyl)pyridin-2-yloxy)phenyl)methylene)-N-(6-methylpyridin-3-yl)piperidine-1-carboxamide]",4590,158 to 160,–
"O=C(Nc1cc(O)[nH]n1)N1CCC(=Cc2cccc(Oc3ccc(C(F)(F)F)cn3)c2)CC1 [Example 143, N-(5-hydroxy-1H-pyrazol-3-yl)-4-(3-{[5-(trifluoromethyl)pyridin-2-yl]oxy}benzylidene)piperidine-1-carboxamide]",412,–,–
N-(pyridazin-3-yl)-4-(3-{[phenyl-2-yl]oxy}benzylidene)piperidine-1-carboxamide [Example 32],–,–,973
N-(pyridin-3-yl)-4-(3-[{phenyl-2-yl]oxy}benzylidene)piperidine-1-carboxamide [Example 31],–,–,931
N-pyridin-4-yl-4-(3-{[5-(trifluoromethyl)pyridin-2-yl]oxy}benzylidene)piperidine-1-carboxamide trifluoroacetate [Example 76],–,–,2390

# From patent publication US8044052B2, “Biaryl ether urea compounds” (Pfizer Inc., priority 2006, dated 2011)
